Reference: patent publication US20240368668A1, “SUBSTRATES AND BIOMARKERS OF ADAMTS7” (The Broad Institute, Inc., priority 2021, published 2024)
Square brackets hold non-standard residues; d marks the D form. Ends that are not written are not given here.

Test system: mouse ADAMTS7
Test: TMT10 TAILS N-terminomics, SMC2 experiment (process replicates, trypsin/AspN digest)
Assay type: cell-based
Outline: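 Full-length mouse ADAMTS7 (WT or E373Q mutant, C-terminal 3xFLAG) or luciferase was transduced via adenovirus, 50 MOI, into HCA-SMC (SMC1, SMC2) or HUVEC. SMC1: pooled media, technical triplicates 400 ug; SMC2: process triplicates 300 ug; HUVEC: process triplicates 200 ug, bFGF2 10 ng/ml.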

[1] = SMC2_TAILS HC, log fold change, mWT over mEQ
[2] = log fold change, ADAMTS7 WT over EQ
[3] = SMC2_TAILS HC, log fold change of N-terminal peptide, Ad-mADAMTS7 WT over EQ

Substance | logFC.mWT.over.mEQ [1] | logFC.mWT.over.mEQ [2] | also measured
ACTG1_105 (LTEAPLNPKANR; listed as Homo sapiens) | 2.11 |  | 
ACTN4_5 (HAANQSYQYGPSSAGNGAGGGGSMG; listed as Homo sapiens) | 2.64 |  | 
ADAM9_74 (GKEHIIHLER; listed as Homo sapiens) | 4.31 |  | 
ADAM10_86 (FKVETSNKVL; listed as Homo sapiens) | 2.74 |  | 
ADNP2_375 (SQPVGPVNK; listed as Homo sapiens) | 0.75 |  | 
AMER2_654 (LAGTTIRATACH; listed as Homo sapiens) | 0.90 |  | 
APLP2_452 (LVETHLAR; listed as Homo sapiens) | 2.59 |  | 
APOA1_86 (EQLGPVTQEFW; listed as Homo sapiens) | 1.88 |  | 
BMPER_43 (LTGSVAKCENEG; listed as Homo sapiens) | 2.43 |  | 
CALU_176 (FTAFLHPEEY; listed as Homo sapiens) | 2.38 |  | 
CAP1_300 (FSAPKPQTSPSPKR; listed as Homo sapiens) | 2.81 |  | 
CCL2_28 (INAPVTCCYNFTNR; listed as Homo sapiens) | 1.46 |  | 
CEP192_728 (DKSTAGR; listed as Homo sapiens) | 2.95 |  | 
CTSB_109 (WAFGAVEAIS; listed as Homo sapiens) | 1.73 |  | 
DBN1_434 (APVEPATA; listed as Homo sapiens) | 1.57 |  | 
DIS3L_75 (FPELKGIIFMQTACQAVQHQR; listed as Homo sapiens) | 1.78 |  | 
ECM1_38 (FQEVGYAAPPSPPLSR; listed as Homo sapiens) | 1.57 |  | 
ECM1_44 (AAPPSPPLSR; listed as Homo sapiens) | 2.54 |  | 
ECM1_108 (QEAVPLQK; listed as Homo sapiens) | 3.34 |  | 
EEF1G_23 (QYSGAQVR; listed as Homo sapiens) | 3.30 |  | 
EIF4B_426 (QTGTSTTSSR; listed as Homo sapiens) | 5.12 |  | 
EMSY_943 (QTVVQVLAVK; listed as Homo sapiens) | 0.92 |  | 
FBLN2_665 (FSQVASNTIPLPLPQPNTCK; listed as Homo sapiens) | 1.89 |  | 
FLNA_689 (VNKPAEFTV; listed as Homo sapiens) | 6.12 |  | 
FLNC_2649 (FVGQKNSFTV; listed as Homo sapiens) | 3.97 |  | 

Substance | logFC.mWT.over.mEQ [1] | logFC.mWT.over.mEQ [2] | also measured
FN1_35 ([code q]MVQPQSPVAVSQSKPGCY; not fully specified (residue 2); listed as Homo sapiens) | 2.08 |  | 
FN1_99 (DKYTGNTYR; listed as Homo sapiens) | 1.43 |  | 
FN1_607 (SSSGPVEVFIT; listed as Homo sapiens) | 0.63 |  | 
FN1_1693 (LQPTVEYVVSVYAQNPSG; listed as Homo sapiens) | 2.05 |  | 
FN1_1780 (LQGLRPGSEYTVSVVALH; listed as Homo sapiens) | 2.01 |  | 
FN1_1805 (LIGTQSTAIPAPT; listed as Homo sapiens) | 1.73 |  | 
FN1_2113 (FVTHPGY; listed as Homo sapiens) | 1.57 |  | 
FOXG1_235 (LNKCFVKVPRHY; listed as Homo sapiens) | 3.34 |  | 
FSTL1_290 (LQKHQETA; listed as Homo sapiens) |  |  | SMC2 logFC.mWT.over.mEQ (TAILS HC Overlap, SMC2, log fold change mouse ADAMTS7 WT over catalytically inactive EQ): 2.86
FSTL_1290 (LQKHQETA; listed as Homo sapiens) | 2.86 |  | 
HEG1_51 (GLELQLER; listed as Homo sapiens) | 0.65 |  | 
HEG1_224 (FQTKSGTAS; listed as Homo sapiens) | 3.25 |  | 
KCND1_436 (RLAKSGTTNAFLQYKQNGGLE; listed as Homo sapiens) | 1.74 |  | 
KRT28_2 (SLQFSNGSR; listed as Homo sapiens) | 2.22 |  | 
LASP1_182 (SYGGYKEPAAPVSIQR; listed as Homo sapiens) | 1.01 |  | 
LOXL1_157 (SVSASAFASTYR; listed as Homo sapiens) | 2.90 |  | 
LOX_60 (LGSQYQPQR; listed as Homo sapiens) | 1.59 |  | 
LOX_125 (FQAGYSTSR; listed as Homo sapiens) | 3.33 |  | 
QSOX1_558 (VAAAPELAMGALELESR; listed as Homo sapiens) |  | 1.13 | 
SDC4_106 (LEENEVIPKR; listed as Homo sapiens) |  | 1.67 | 
SERPINH1_27 (AAAPGTAEKLSPKAATLAER; listed as Homo sapiens) |  | 3.30 | 
SMOC1_35 (LISDRDPQCNLHCSR; listed as Homo sapiens) |  | 1.62 | 
SPOCK1_126 (HWVGPSNLVK; listed as Homo sapiens) |  | 0.93 | 
SRGN_50 (LEEKGPMFELLPGESNKIPR; listed as Homo sapiens) |  | 3.28 | 
SRGN_51 (EEKGPMFELLPGESNKIPR; listed as Homo sapiens) |  | 1.79 | 

Substance | logFC.mWT.over.mEQ [1] | logFC.mWT.over.mEQ [2] | also measured
SRGN_60 (LPGESNKIPR; listed as Homo sapiens) |  | 3.25 | 
SRGN_62 (GESNKIPR; listed as Homo sapiens) |  | 3.26 | 
STC1_37 (QNSAEVVR; listed as Homo sapiens) |  | 4.78 | 
STC2_239 (HGEAGHHLPEPSSR; listed as Homo sapiens) |  | 1.70 | 
STC2_244 (HHLPEPSSR; listed as Homo sapiens) |  | 1.35 | 
TGFBI_24 (GPAKSPYQLVLQHSR; listed as Homo sapiens) |  | 0.71 | 
TGFBI_43 ([code q]HGPNVCAVQKVIGTNR; not fully specified; listed as Homo sapiens) |  | 0.75 | 
TGFBI_50 (AVQKVIGTNR; listed as Homo sapiens) |  | 0.64 | 
TGFBI_208 (GIVTVNCAR; listed as Homo sapiens) |  | 0.59 | 
TGFBI_276 (TLLAPT[code n]EAFEKIPSETLNR; not fully specified; listed as Homo sapiens) |  | 0.66 | 
TGFBI_497 (VLTPPMGTVMDVLKGDNR; not fully specified (residue 6); listed as Homo sapiens) |  | 0.61 | 
TGFBI_524 (SAGLTETLNR; listed as Homo sapiens) |  | 0.66 | 
TGFBI_534 (EGVYTVFAPTNEAFR; listed as Homo sapiens) |  | 0.82 | 
TG_1017 (GASALLR; listed as Homo sapiens) |  | 3.05 | 
THBS1_972 (QNDPNWVVR; listed as Homo sapiens) |  | 3.59 | 
TLN1_1501 (HTSALCNSCR; listed as Homo sapiens) |  | 1.48 | 
TMEM132A_52 (LLDAPEHFR; listed as Homo sapiens) |  | 2.95 | 
VASN_138 (HIQPGAFDTLDR; listed as Homo sapiens) |  | 1.45 | 
VASP_229 (AIAGAKLR; listed as Homo sapiens) |  | 4.56 | 
VCAN_3367 (FKNSSSAK; listed as Homo sapiens) |  |  | logFC.mWT.over.mEQ [3]: 1.51
VIM_276 (YESVAAKNLQ; listed as Homo sapiens) |  |  | logFC.mWT.over.mEQ [3]: 0.83
VIM_322 (QVQSLTCEV; listed as Homo sapiens) |  |  | logFC.mWT.over.mEQ [3]: 1.11
VIM_433 (LVDTHSKR; listed as Homo sapiens) |  | 2.79 | 
ZSCAN4_25 (FQQSQGPAVQR; listed as Homo sapiens) |  |  | logFC.mWT.over.mEQ [3]: 2.89
